pIC50: −log10 of the molar value. Like-named read-outs stand apart in the source and are kept apart here.

As a reminder, the pIC50 is the IC50 on a negative log10 scale, so that one unit is a factor of ten.

One assay deals with hMetAP1 (Homo sapiens, UniProt P53582). Description: MetAP1 enzyme assay. The format is biochemical.
The next assay concerns HUVEC. Nature of the assay: HUVEC inhibition (selectivity). The format is cell-based, human.
Another assay concerns HFF. Description: HFF inhibition (selectivity). The format is cell-based, human.
The next assay deals with hMetAP2 (Homo sapiens, UniProt P50579). Description: MetAP2 enzyme assay. The format is biochemical.
Sequence of hMetAP2 (P50579 whole entry): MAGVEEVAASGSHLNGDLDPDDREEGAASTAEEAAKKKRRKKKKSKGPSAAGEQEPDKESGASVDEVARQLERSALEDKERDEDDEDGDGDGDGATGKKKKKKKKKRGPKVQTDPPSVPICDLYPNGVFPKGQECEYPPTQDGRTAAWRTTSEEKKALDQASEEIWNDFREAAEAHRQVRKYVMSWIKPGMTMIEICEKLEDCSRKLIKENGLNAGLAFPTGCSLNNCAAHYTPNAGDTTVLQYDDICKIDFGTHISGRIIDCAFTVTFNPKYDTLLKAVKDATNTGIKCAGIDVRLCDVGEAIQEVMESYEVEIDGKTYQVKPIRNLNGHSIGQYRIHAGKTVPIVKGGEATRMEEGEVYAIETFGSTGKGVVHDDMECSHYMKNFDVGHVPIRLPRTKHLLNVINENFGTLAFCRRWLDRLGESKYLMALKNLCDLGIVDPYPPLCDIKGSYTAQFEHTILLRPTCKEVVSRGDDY
Where [1] appears, read: Co2+ as metal ion, Table 1, read-out: hMetAP1 CO^2+ IC50.
[2] abbreviates: Mn2+ as metal ion, Table 1, read-out: hMetAP1 Mn^2+ IC50.
The mark [3] stands for this setting: Co2+ as metal ion, Table 1, read-out: hMetAP2 CO^2+ IC50.
[4] abbreviates: Mn2+ as metal ion, Table 1, read-out: hMetAP2 Mn^2+ IC50.
[5] abbreviates: Co2+ as metal ion, Table 2, read-out: hMetAP2 Co^2+ IC50.
Where [6] appears, read: Mn2+ as metal ion, Table 2, read-out: hMetAP2 Mn^2+ IC50.
The mark [7] stands for this setting: Co2+ as metal ion, Table 2, read-out: hMetAP1 Co^2+ IC50.
Setting [8] is: Mn2+ as metal ion, Table 2, read-out: hMetAP1 Mn^2+ IC50.

As to `Oc1c(CN2CCCCC2)cc(Cl)c2cccnc12` [Entry 2b], the pIC50 on hMetAP1 (setting [1]) and on hMetAP1 (setting [2]) was under 4.30 throughout.

Take `C=CCOc1ccc(Cl)c2cccnc12` [Entry 3a]: the pIC50 with HUVEC (Homo sapiens, Table 1) is under 4.30; in the assay on HFF (Homo sapiens, Table 1), under 4.30.

`Oc1c(C(c2ccccc2)N2CCOCC2)cc(Cl)c2cccnc12` (stereo not drawn) [Entry 2f]: the pIC50 is 5.10 on hMetAP2 (setting [3]); 6.48 at hMetAP2 (setting [4]); 4.85 on hMetAP1 (setting [1]); under 4.30 at hMetAP1 (setting [2]); 5.07 in the assay with HUVEC (Homo sapiens, Table 1); 4.72 in the assay with HFF (Homo sapiens, Table 1).

As for `Oc1c(CN2CCOCC2)ccc2cccnc12` [Entry 2c], the pIC50 at hMetAP2 (setting [3]) was under 4.30; on hMetAP2 (setting [4]) it was 4.82; at hMetAP1 (setting [1]) it was under 4.30; on hMetAP1 (setting [2]) it was under 4.30; in the assay with HUVEC (Homo sapiens, Table 1), 4.48; in the assay on HFF (Homo sapiens, Table 1), 5.01.

For `O=C(Nc1cc(Cl)ccc1Cl)Oc1c(Cl)cc(Cl)c2cccnc12` [Entry 4b], the pIC50 is under 4.30 on hMetAP2 (setting [5]); 6.05 on hMetAP2 (setting [6]); under 4.30 on hMetAP1 (setting [7]); under 4.30 on hMetAP1 (setting [8]); 6.96 in the assay on HUVEC (Table 2); 5.52 in the assay on HFF (Table 2).

Regarding `CN1CCN(Cc2cc(Cl)c3cccnc3c2O)CC1` [Entry 2e], the pIC50 in the assay on HUVEC (Table 1) is 5.02; with HFF (Table 1), 4.82.

Consider `OCCN(CCO)Cc1cc(Cl)c2cccnc2c1O` [Entry 2a], for which the pIC50 is 4.55 on hMetAP2 (setting [4]); 4.97 in the assay with HUVEC (Homo sapiens, Table 1); 6.10 in the assay on HFF (Homo sapiens, Table 1).

`O=C(Nc1cc(Cl)ccc1Cl)Oc1ccc(Cl)c2cccnc12` [Entry 4c]: the negative logarithm of the IC50 (pIC50) at hMetAP2 (setting [5]) was 5.66; at hMetAP2 (setting [6]), 7.15; at hMetAP1 (setting [7]), under 4.30; at hMetAP1 (setting [8]), 4.90; in the assay with HUVEC (Table 2), 5.92; in the assay with HFF (Table 2), 5.10.

In the case of `OCCOc1ccc(Cl)c2cccnc12` [Entry 3b], the pIC50 at hMetAP2 is under 4.30; at hMetAP2 (read-out: hMetAP2 CO^2+ IC50, Co2+ as metal ion, Table 1), under 4.30; on hMetAP1, under 4.30; at hMetAP1 (read-out: hMetAP1 CO^2+ IC50, Co2+ as metal ion, Table 1) it was under 4.30; in the assay with HUVEC (Homo sapiens, Table 1) it was under 4.30; with HFF (Homo sapiens, Table 1), under 4.30.

In the case of `O=C(Nc1cc(Cl)c(Cl)cc1Cl)Oc1c(Cl)cc(Cl)c2cccnc12` [Entry 4a], the pIC50 at hMetAP2 (setting [5]) was under 4.30; at hMetAP2 (setting [6]), 5.59; at hMetAP1 (setting [7]), under 4.30; on hMetAP1 (setting [8]) it was under 4.30; in the assay with HUVEC (Table 2), 5.89; with HFF (Table 2), 5.31.

The values above are taken from patent US20130210821A1, “Methods for Treating Obesity” (priority 2010, published 2013).
